Experimental data published in ChEMBL document CHEMBL6109139, “Rational Design of the First Dual Agonist at Trace Amine-Associated Receptor 1 and 5-HT2C Receptors Based on Binding Pocket Similarity for the Treatment of Schizophrenia and Alzheimer's Disease-Related Psychosis” (J Med Chem, 2025).

Columns and labels:
[1] = target: Acetylcholinesterase (Homo sapiens) (UniProt P22303); experiment: Binding affinity to ACHE (unknown origin) at 10 uM by radioligand binding assay relative to control
[2] = target: Delta-type opioid receptor (Homo sapiens) (UniProt P41143); experiment: Binding affinity to op-delta receptor (unknown origin) at 10 uM by radioligand binding assay relative to control
Sequence of Delta-type opioid receptor (Homo sapiens) (P41143 whole entry): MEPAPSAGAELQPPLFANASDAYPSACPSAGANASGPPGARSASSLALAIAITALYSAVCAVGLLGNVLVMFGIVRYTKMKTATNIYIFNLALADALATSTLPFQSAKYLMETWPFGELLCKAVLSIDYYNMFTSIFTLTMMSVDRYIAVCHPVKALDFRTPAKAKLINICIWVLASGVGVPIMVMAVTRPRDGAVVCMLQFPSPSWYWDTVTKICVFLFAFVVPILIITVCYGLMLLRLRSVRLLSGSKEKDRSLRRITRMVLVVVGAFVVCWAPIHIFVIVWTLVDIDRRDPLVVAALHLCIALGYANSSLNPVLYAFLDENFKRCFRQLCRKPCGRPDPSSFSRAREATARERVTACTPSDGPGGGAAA

[3] = Toxicity in female Sprague-Dawley rat assessed as change in organ weight at 2.5 to 7.5 mg/kg, po administered once daily for 4 weeks and measured after 4 weeks; format: organism-based; settings: in vivo, 1344 h, dose 2.5-7.5 mg/kg, time 8 weeks
[4] = Toxicity in male Sprague-Dawley rat assessed as slow respiration at 7.5 mg/kg, po administered once daily for 4 weeks; format: organism-based; settings: in vivo, 672 h
[5] = Toxicity in female Sprague-Dawley rat assessed as minimal corneal neovascularization at 2.5 to 7.5 mg/kg, po administered once daily for 4 weeks and measured after 4 weeks; format: organism-based; settings: in vivo, 1344 h, dose 2.5-7.5 mg/kg, time 8 weeks
[6] = Cardiotoxicity in conscious cynomolgus monkey assessed as normal spontaneous movement at 3.125 to 12.5 mg/kg, IG; format: toxicity, organism-based, Macaca fascicularis; settings: in vivo, po, dose 3.125-12.5 mg/kg
[7] = Toxicity in male Sprague-Dawley rat assessed as piloerection at 7.5 mg/kg, po administered once daily for 4 weeks and measured after 4 weeks; format: organism-based; settings: in vivo, 1344 h, time 8 weeks
[8] = target: GABA-A receptor; anion channel (Homo sapiens) (UniProt P14867+P47870+P18507+P28472+P48169+Q99928+Q9UN88+P34903+O00591+O14764+Q8N1C3+P18505+P78334+P47869+P31644+Q16445); experiment: Binding affinity to GABAA (unknown origin) at 10 uM by radioligand binding assay relative to control; format: protein-complex assay
[9] = Plasma protein binding in rat assessed as unbound fraction by LC-MS/MS analysis; format: ADME, cell-free
[10] = Toxicity in male Beagle dog assessed as change in food consumption at 0.75 to 2.5 mg/kg, IG administered once daily for 4 weeks and measured after 4 weeks; format: organism-based, Canis lupus familiaris; settings: in vivo, po, 1344 h, dose 0.75-2.5 mg/kg, time 8 weeks
[11] = target: 3',5'-cyclic-AMP phosphodiesterase 4D (Homo sapiens) (UniProt Q08499); experiment: Binding affinity to PDE4D2 receptor (unknown origin) at 10 uM by radioligand binding assay relative to control
Sequence of 3',5'-cyclic-AMP phosphodiesterase 4D (Homo sapiens) (Q08499 whole entry): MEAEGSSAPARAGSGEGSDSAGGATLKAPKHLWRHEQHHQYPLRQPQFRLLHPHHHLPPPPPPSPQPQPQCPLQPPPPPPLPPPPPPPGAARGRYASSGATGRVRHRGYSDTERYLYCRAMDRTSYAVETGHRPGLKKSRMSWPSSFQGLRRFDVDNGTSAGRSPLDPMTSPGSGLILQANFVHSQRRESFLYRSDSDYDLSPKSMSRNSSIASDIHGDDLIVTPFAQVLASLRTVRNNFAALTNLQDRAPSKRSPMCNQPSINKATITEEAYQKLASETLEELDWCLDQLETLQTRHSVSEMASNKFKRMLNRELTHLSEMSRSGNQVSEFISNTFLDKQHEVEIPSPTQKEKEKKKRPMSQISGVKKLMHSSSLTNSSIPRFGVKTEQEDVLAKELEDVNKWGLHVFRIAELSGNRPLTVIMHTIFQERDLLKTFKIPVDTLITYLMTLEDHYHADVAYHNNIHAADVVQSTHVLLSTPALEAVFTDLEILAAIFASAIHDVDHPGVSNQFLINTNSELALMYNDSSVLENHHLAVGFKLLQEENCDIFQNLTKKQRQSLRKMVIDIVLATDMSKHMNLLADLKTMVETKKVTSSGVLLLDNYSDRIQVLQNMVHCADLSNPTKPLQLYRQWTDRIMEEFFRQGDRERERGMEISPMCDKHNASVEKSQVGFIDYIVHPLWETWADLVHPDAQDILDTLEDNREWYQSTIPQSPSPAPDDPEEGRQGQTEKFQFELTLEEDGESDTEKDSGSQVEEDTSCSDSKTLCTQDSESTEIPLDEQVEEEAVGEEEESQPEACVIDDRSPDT

[12] = Toxicity in male Sprague-Dawley rat assessed as change in bone marrow smears at 2.5 to 7.5 mg/kg, po administered once daily for 4 weeks and measured after 4 weeks; format: organism-based; settings: in vivo, 1344 h, dose 2.5-7.5 mg/kg, time 8 weeks
[13] = Toxicity in male Beagle dog assessed as change in bone marrow smears at 0.75 to 2.5 mg/kg, IG administered once daily for 4 weeks and measured after 4 weeks; format: organism-based, Canis lupus familiaris; settings: in vivo, po, 1344 h, dose 0.75-2.5 mg/kg, time 8 weeks
[14] = Toxicity in female Sprague-Dawley rat assessed as corneal epithelial degeneration at 7.5 mg/kg, po administered once daily for 4 weeks; format: organism-based; settings: in vivo, 672 h
[15] = Toxicity in female Sprague-Dawley rat assessed as slow respiration at 7.5 mg/kg, po administered once daily for 4 weeks and measured after 4 weeks; format: organism-based; settings: in vivo, 1344 h, time 8 weeks
[16] = target: 5-hydroxytryptamine receptor 2C (Mus musculus, UniProt P34968); experiment: Agonist activity at mouse 5-HT2CR; format: functional
Sequence of 5-hydroxytryptamine receptor 2C (P34968 whole entry): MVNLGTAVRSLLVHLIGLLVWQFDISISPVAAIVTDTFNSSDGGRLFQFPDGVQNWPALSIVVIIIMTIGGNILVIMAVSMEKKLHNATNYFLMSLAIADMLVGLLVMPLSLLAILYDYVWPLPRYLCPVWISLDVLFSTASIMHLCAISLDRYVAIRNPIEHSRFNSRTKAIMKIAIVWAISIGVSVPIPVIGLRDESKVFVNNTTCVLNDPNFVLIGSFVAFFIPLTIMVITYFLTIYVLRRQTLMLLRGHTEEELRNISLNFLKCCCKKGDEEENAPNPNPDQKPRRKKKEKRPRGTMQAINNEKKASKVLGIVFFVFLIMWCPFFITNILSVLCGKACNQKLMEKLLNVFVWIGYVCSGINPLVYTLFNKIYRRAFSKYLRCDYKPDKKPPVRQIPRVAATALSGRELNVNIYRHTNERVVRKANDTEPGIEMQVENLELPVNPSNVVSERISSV

[17] = Toxicity in Sprague-Dawley rat assessed as normal spontaneous movement at 2.5 to 7.5 mg/kg, po administered once daily for 4 weeks; format: organism-based; settings: in vivo, 672 h, dose 2.5-7.5 mg/kg
[18] = Toxicity in Sprague-Dawley rat assessed as animal death 2.5 to 7.5 mg/kg, po administered once daily for 4 weeks; format: organism-based; settings: in vivo, 672 h, dose 2.5-7.5 mg/kg
[19] = Toxicity in female Sprague-Dawley rat assessed as piloerection at 7.5 mg/kg, po administered once daily for 4 weeks and measured after 4 weeks; format: organism-based; settings: in vivo, 1344 h, time 8 weeks
[20] = Toxicity in female Sprague-Dawley rat assessed as minimal corneal neovascularization at 7.5 mg/kg, po administered once daily for 4 weeks; format: organism-based; settings: in vivo, 672 h
[21] = Plasma protein binding in dog assessed as unbound fraction by LC-MS/MS analysis; format: ADME, cell-free, Canis lupus familiaris
[22] = Mutagenicity in Salmonella typhimurium TA1535 by Ames test; format: toxicity; settings: salmonella enterica subsp. enterica serovar typhimurium
[23] = Toxicity in male Sprague-Dawley rat assessed as minimal corneal neovascularization at 7.5 mg/kg, po administered once daily for 4 weeks; format: organism-based; settings: in vivo, 672 h
[24] = target: Cytochrome P450 2C8 (Homo sapiens, UniProt P10632); experiment: Inhibition of CYP2C8 in human liver microsomes in presence of NADPH by LC-MS/MS analysis; format: ADME, Microsome
Sequence of Cytochrome P450 2C8 (P10632 whole entry): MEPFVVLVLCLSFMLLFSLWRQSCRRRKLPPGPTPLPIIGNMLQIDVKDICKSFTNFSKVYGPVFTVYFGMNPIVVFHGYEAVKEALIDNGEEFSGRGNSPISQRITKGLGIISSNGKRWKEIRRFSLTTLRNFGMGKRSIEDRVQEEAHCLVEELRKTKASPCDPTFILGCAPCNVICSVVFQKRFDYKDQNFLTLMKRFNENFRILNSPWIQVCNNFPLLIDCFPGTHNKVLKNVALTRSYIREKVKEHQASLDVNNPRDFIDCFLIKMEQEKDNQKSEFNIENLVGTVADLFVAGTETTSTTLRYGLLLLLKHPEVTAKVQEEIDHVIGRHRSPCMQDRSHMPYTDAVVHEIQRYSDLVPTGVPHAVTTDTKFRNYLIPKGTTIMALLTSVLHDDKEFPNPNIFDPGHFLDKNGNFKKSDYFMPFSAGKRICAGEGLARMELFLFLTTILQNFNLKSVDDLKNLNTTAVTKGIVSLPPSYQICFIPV

[25] = target: Alpha-2A adrenergic receptor (Homo sapiens) (UniProt P08913); experiment: Binding affinity to alpha 2A (unknown origin) at 10 uM by radioligand binding assay relative to control
Sequence of Alpha-2A adrenergic receptor (Homo sapiens) (P08913 whole entry): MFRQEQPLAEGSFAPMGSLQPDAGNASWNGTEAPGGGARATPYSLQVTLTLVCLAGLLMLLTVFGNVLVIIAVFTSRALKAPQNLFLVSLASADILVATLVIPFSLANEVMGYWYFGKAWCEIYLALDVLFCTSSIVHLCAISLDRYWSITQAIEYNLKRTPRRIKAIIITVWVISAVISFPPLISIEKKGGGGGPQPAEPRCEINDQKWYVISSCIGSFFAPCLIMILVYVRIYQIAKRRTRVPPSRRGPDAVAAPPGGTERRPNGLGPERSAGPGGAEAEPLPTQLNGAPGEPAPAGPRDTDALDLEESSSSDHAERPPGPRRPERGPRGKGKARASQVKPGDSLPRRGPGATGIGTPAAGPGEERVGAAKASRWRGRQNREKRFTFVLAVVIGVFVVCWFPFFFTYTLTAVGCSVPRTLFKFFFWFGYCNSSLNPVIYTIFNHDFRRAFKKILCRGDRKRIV

[26] = Inhibition of CYP2D6 in human liver microsomes in presence of NADPH by LC-MS/MS analysis; format: ADME, Microsome
[27] = target: Alpha-1A adrenergic receptor (Homo sapiens) (UniProt P35348); experiment: Binding affinity to alpha 1A (unknown origin) at 10 uM by radioligand binding assay relative to control
Sequence of Alpha-1A adrenergic receptor (Homo sapiens) (P35348 whole entry): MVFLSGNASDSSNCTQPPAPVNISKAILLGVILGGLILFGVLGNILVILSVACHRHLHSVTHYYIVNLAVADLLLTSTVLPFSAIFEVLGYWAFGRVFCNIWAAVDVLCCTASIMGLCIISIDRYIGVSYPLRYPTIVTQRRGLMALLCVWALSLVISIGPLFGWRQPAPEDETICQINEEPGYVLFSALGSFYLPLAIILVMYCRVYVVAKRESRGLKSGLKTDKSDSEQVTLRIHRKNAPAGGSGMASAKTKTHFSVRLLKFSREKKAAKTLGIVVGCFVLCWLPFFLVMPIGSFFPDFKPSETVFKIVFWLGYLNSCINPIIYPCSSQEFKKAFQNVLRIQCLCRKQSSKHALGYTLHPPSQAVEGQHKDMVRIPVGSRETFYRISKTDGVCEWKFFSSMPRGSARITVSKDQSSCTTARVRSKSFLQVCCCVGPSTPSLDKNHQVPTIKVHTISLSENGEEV

[28] = target: T1, 5-hydroxytryptamine receptor 2C (Homo sapiens) (UniProt P28335); experiment: Agonist activity at recombinant human 5-HT2CR expressed in HEK293 cells incubated for 2 hrs by measuring maximum efficacy by FLIPR calcium assay relative to control; format: functional, cell-based; settings: filed as agonist
T1 sequence (whole entry): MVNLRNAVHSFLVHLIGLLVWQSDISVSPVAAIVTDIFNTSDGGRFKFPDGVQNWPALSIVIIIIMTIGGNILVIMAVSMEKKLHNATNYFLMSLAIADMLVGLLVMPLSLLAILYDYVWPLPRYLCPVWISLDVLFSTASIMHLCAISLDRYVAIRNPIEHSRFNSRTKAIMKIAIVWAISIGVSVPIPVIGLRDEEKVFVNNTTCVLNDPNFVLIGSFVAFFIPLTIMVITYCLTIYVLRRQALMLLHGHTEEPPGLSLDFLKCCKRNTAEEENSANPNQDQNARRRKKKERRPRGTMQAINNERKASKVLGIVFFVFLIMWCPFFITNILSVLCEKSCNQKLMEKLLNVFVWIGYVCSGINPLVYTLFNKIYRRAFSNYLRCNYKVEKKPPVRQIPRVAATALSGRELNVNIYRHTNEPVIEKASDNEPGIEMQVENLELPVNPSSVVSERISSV

[29] = Toxicity in female Sprague-Dawley rat assessed as change in hematology at 2.5 to 7.5 mg/kg, po administered once daily for 4 weeks and measured after 4 weeks; format: organism-based; settings: in vivo, 1344 h, dose 2.5-7.5 mg/kg, time 8 weeks
[30] = species on record: Homo sapiens; experiment: Binding affinity to CCKa (unknown origin) at 10 uM by radioligand binding assay relative to control
[31] = target: Nav1.5 (Homo sapiens, UniProt Q14524); experiment: Binding affinity to human Nav1.5 receptor at 10 uM by radioligand binding assay relative to control; settings: read-out: Activity
Sequence of Nav1.5 (Q14524 whole entry): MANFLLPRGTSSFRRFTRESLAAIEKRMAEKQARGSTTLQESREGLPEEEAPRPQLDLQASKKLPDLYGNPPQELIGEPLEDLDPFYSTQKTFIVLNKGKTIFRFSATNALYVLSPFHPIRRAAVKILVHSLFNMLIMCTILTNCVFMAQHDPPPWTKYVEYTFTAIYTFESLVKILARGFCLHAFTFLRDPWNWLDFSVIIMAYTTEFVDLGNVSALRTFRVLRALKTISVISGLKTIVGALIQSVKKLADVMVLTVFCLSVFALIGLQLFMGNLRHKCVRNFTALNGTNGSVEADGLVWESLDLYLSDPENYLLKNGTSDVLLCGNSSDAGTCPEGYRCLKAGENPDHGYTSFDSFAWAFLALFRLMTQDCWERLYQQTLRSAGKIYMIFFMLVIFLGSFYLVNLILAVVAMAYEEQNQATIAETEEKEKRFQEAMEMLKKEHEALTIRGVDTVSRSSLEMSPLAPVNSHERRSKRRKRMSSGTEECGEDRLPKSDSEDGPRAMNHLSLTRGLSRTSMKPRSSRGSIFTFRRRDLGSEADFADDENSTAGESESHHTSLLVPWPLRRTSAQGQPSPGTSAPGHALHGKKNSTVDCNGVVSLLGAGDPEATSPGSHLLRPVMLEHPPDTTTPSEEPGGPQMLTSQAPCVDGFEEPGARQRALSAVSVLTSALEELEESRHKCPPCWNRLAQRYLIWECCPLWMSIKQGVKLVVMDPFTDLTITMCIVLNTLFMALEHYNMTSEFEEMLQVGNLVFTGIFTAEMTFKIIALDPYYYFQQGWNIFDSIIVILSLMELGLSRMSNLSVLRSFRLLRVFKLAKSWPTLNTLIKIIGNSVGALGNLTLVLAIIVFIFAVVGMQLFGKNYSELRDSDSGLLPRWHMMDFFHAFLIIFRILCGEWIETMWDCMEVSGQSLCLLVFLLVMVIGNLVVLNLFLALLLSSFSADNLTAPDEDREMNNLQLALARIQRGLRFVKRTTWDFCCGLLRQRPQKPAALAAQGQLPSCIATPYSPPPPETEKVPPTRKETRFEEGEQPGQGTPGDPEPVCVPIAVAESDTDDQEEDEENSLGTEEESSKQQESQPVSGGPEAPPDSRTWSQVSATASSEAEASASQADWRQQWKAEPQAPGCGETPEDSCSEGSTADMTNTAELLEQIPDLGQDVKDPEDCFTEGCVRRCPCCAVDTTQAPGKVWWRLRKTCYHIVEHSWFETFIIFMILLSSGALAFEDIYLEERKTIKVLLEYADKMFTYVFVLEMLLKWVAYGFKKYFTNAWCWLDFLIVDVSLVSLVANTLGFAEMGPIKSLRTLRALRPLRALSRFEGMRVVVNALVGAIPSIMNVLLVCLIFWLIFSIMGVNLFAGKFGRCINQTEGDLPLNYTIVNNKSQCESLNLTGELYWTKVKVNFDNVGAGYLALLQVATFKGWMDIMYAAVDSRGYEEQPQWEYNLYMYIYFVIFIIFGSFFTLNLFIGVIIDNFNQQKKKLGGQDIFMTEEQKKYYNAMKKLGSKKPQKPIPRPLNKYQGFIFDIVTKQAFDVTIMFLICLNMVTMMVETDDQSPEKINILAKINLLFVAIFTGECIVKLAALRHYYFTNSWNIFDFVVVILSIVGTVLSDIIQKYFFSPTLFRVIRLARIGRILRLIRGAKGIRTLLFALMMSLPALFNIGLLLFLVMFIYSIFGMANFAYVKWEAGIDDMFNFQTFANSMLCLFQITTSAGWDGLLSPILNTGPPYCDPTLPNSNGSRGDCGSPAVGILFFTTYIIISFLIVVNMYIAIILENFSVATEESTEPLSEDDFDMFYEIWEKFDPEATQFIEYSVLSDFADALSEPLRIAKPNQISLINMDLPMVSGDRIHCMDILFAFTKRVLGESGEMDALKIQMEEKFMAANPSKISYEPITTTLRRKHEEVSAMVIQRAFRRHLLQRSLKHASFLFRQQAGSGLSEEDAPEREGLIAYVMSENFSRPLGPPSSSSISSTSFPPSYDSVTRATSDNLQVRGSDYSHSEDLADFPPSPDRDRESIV

[32] = Toxicity in female Sprague-Dawley rat assessed as irritability at 7.5 mg/kg, po administered once daily for 4 weeks and measured after 4 weeks; format: organism-based; settings: in vivo, 1344 h, time 8 weeks
[33] = Toxicity in male Sprague-Dawley rat assessed as irritability at 7.5 mg/kg, po administered once daily for 4 weeks; format: organism-based; settings: in vivo, 672 h

c1cc2c(s1)[C@@H]1CNCCN1CC2
Activity [1]: -0.73%
Activity [2]: 15.4%
Activity [3]: Non-toxic
Activity [4]: Toxic
Activity [5]: Non-toxic
Activity [6]: Non-toxic
Activity [7]: Non-toxic
Activity [8]: -21.4%
fraction unbound [9]: 0.759
Activity [10]: Non-toxic
Activity [11]: 5.4%
Activity [12]: Non-toxic
Activity [13]: Non-toxic
Activity [14]: Toxic
Activity [15]: Non-toxic
EC50 [16]: 0.0744 µM
Activity [17]: Non-toxic
Activity [18]: Non-toxic
Activity [19]: Non-toxic
Activity [20]: Toxic
fraction unbound [21]: 0.761
Activity [22]: Non-toxic
Activity [23]: Toxic
IC50 [24]: > 50 µM
Activity [25]: 72.7%
IC50 [26]: > 50 µM
Activity [27]: 55%
Emax [28]: 100%
Activity [29]: Non-toxic
Activity [30]: 1.26%
activity at 10 µM [31]: 13.4%
Activity [32]: Non-toxic
Activity [33]: Toxic
